Experimental data reported in PMC13408504, “Design, structure-based optimization and antiviral evaluation of potent inhibitors for the macrodomain Mac1 of SARS-CoV-2” (Nature Communications, 2026).
“And” between values parts separate entries of the source, which are not always exact repeats. Equal entries are not always repeated.

How the values were obtained:
Mac1 of SARS-CoV-2 [1] = target: T1, Mac1 of SARS-CoV-2 (Severe acute respiratory syndrome coronavirus 2, UniProt P0DTD1); test: Fluorimetric microplate assay for Mac1 activity (α-NAD+ hydrolysis, post-reaction derivatisation); format: biochemical
wildtype Mac1 [2] = target: T2, wildtype Mac1 (Severe acute respiratory syndrome coronavirus 2, UniProt P0DTD1); format: binding
Mac1 [3] = details: cited from earlier work
Mac1 [4] = details: cited from earlier work; remark: listed apart in the source
Mac1 of SARS-CoV-2 [5] = target: T1, Mac1 of SARS-CoV-2; test: biochemical; details: pIC50 (±SD) for Mac1 inhibition
[6] = tested on: cellular NAD+ levels in CaLu-3 cells; test: Quantification of cellular NAD+ (enzymatic cycling kit, normalised to protein); format: cell-based
human MacroD2 = human MacroD2 (Homo sapiens, UniProt A1Z1Q3); format: biochemical
human MacroD1 = human MacroD1 (Homo sapiens, UniProt Q9BQ69); format: biochemical
physchem = details: pH 7.3
pig liver esterase (PLE) = details: pH 7.3
in vitro = details: human, pH 7.4
[7] = pH 7.3
wildtype Mac1 [8] = target: T2, wildtype Mac1; format: biochemical, SARS-CoV-2
[9] = target: NADase from Neurospora crassa (Neurospora crassa, UniProt Q7S936); format: biochemical
Chain of NADase from Neurospora crassa (Q7S936 20-243 limits assumed): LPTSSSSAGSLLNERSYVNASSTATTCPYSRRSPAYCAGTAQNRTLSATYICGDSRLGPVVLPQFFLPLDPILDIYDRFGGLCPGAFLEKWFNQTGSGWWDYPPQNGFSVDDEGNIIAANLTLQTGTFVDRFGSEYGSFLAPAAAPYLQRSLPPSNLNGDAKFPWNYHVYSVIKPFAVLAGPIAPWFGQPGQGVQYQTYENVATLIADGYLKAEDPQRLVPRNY

Chain of human MacroD2 (A1Z1Q3 whole entry): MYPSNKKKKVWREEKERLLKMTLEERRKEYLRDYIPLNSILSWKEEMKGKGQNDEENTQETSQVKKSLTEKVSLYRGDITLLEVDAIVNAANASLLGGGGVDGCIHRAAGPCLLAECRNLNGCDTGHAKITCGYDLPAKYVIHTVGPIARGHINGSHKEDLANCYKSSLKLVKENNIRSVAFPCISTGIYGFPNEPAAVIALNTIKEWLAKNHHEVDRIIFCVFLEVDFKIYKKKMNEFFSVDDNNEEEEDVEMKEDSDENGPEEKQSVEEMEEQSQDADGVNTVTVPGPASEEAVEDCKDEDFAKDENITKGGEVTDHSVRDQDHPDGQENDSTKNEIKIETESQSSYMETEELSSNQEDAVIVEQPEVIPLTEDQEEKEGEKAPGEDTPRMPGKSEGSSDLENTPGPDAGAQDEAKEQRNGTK
Chain of human MacroD1 (Q9BQ69 whole entry): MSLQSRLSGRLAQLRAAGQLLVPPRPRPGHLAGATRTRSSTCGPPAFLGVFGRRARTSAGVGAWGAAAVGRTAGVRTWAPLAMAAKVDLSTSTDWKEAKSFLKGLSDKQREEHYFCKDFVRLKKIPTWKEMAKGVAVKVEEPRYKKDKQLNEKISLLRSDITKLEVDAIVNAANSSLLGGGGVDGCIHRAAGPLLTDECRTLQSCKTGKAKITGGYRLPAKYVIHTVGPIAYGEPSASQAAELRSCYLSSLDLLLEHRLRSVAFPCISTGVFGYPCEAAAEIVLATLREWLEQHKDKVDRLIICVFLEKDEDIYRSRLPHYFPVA

## Nc1ncnc2c1ncn2[C@@H]1O[C@H](CO)[C@@H](O)[C@H]1O [compound 38, adenosine]
Mac1 of SARS-CoV-2 [1]
  Inhibition of Mac1 (in words): showed no inhibition

## Nc1ncnc2c1ncn2[C@@H]1O[C@H](COP(=O)(O)O)[C@@H](O)[C@H]1O [compound 39, AMP]
Mac1 of SARS-CoV-2 [1]
  Inhibition of Mac1 (in words): showed no inhibition

## Nc1ncnc2c1ncn2[C@@H]1O[C@H](COP(=O)(O)OP(=O)(O)OC[C@H]2O[C@@H](O)C(O)[C@H]2O)C(O)[C@@H]1OP(=O)(O)O (stereo partly drawn) [compound 15, ADPR-2′-phosphate]
Wildtype Mac1 [2]
  TΔS: -5.4 ± 1.2 kcal/mol
  ΔH: -11.5 ± 0.2 kcal/mol
Mac1 [3]
  affinity for Mac1 compared with ADPR 1 (in words): slightly higher affinity than ADPR 1

## Nc1ncnc2c1ncn2[C@@H]1O[C@H](COP(=O)(O)CP(=O)(O)O)[C@@H](O)[C@H]1O [compound 34, α-β methylene-ADP]
Mac1 of SARS-CoV-2 [1]
  Inhibition of Mac1 (in words): none of these compounds inhibited Mac1

## Nc1ncnc2c1ncn2[C@@H]1O[C@H](COP(=O)(O)OP(=O)(O)O[C@H]2O[C@H](CO)[C@@H](O)[C@H](O)[C@H]2O)[C@@H](O)[C@H]1O [compound 23, ADP-glucose]
Mac1 of SARS-CoV-2 [1]
  Inhibition of Mac1 (in words): no detectable inhibition

## Nc1ncnc2c1cc(Br)n2C1OC(COP(=O)(O)OP(=O)(O)OCC2OC(O)C(O)C2O)C(O)C1O (stereo not drawn) [compound 14, 8-Br-7-deaza-ADPR]
Mac1 of SARS-CoV-2 [1]
  IC50: 38 µM

## Nc1ncnc2c1ncn2[C@H]1C[C@H](O)[C@@H](COP(=O)(O)OP(=O)(O)OC[C@H]2OC(O)[C@H](O)[C@@H]2O)O1 (stereo partly drawn) [compound 16, 2′-deoxy-ADPR]
Wildtype Mac1 [2]
  TΔS: -5.9 ± 0.2 kcal/mol
  ΔH: -12.5 ± 0.2 kcal/mol

## Nc1ncnc2c1ncn2[C@@H]1O[C@H](COP(=O)(O)OP(=O)(O)S)[C@@H](O)[C@H]1O (stereo partly drawn) [compound 35, adenosine-5′-O-(2-thiodiphosphate)]
Mac1 of SARS-CoV-2 [1]
  IC50: 3890 µM

## Nc1ncnc2c1ncn2[C@@H]1O[C@H](COP(=O)(O)OP(=O)(O)O)[C@@H](O)[C@H]1O [compound 18, ADP]
Mac1 of SARS-CoV-2 [1]
  pIC50 (±SD) for Mac1 inhibition: 2.44 and 2.3 ± 0.1
Mac1 [4]
  thermal stabilisation of Mac1 (in words): not thermally stabilised

## Nc1ncnc2c1nc(-c1ccsc1)n2C1OC(COP(=O)(O)OP(=O)(O)OCC2OC(O)C(O)C2O)C(O)C1O (stereo not drawn) [compound 12, 8-thiophen-3-yl-ADPR]
Mac1 of SARS-CoV-2 [5]
  IC50: 251 µM

## O=C(/C=C/c1cccnc1)NCCCCC1CCN(C(=O)c2ccccc2)CC1 [FK866]
[6]
  reduction of cellular NAD levels: ~ 90%

## Nc1ncnc2c1ccn2C1OC(COP(=O)(O)OP(=O)(O)OCC2OC(O)C(O)C2O)C(O)C1O (stereo not drawn) [compound 22, 7-Deazaadenosine DP ribose]
Mac1 of SARS-CoV-2 [1]
  IC50: 14.5 µM

## N#C[C@@]1(c2ccc3c(N)ncnn23)O[C@H](CO)[C@@H](O)[C@H]1O [compound 3, GS-441524]
Mac1 [3]
  affinity for Mac1 compared with ADPR 1 (in words): affinity similar to ADPR 1

## Nc1ncnc2c1nc(Br)n2C1OC(COP(=O)(O)OP(=O)(O)OCC2OC(O)C(O)C2O)C(O)C1O (stereo not drawn) [compound 13, 8-Br-ADPR]
Human MacroD2
  Inhibition of human MacroD2 (in words): low micromolar range
Human MacroD1
  Inhibition of human MacroD1 (in words): low micromolar range

## COP(=O)(O)OP(=O)(O)OC[C@H]1O[C@@](C#N)(c2ccc3c(N)ncnn23)[C@H](O)[C@@H]1O [compound 4, β-methyl-GS-441524-DP]
CaLu-3 cells; human, pH 7.4
  time at which cellular uptake reached an equilibrium: 15 min

## N#C[C@@]1(c2ccc3c(N)ncnn23)O[C@H](COP(=O)(O)O)[C@@H](O)[C@H]1O [compound 40, GS-441524-monophosphate]
Mac1 of SARS-CoV-2 [1]
  IC50: 43.7 µM

## CCCCCCCCCCCC(=O)Oc1ccc(COP(=O)(OC)OP(=O)(O)OC[C@H]2O[C@@](C#N)(c3ccc4c(N)ncnn34)[C@H](O)[C@@H]2O)cc1 (stereo partly drawn) [compound 5, C11-AB-β-methyl-GS-441524-DP]
physchem
  half-life: 61 h
Pig liver esterase (PLE)
  hydrolysis with pig liver esterase (in words): successful
CaLu-3 cells
  decrease of β-NAD+ 2 levels: 62%
CaLu-3 cells; human, pH 7.4
  GS-441524-MP 40 formed, share of the total of detectable 40 and deprotected compound: 24%
  intracellular concentration: 0.3 to 0.4 µM
In vitro
  CC50: > 50 µM
[7]
  time at which incipient decomposition to GS-441524-MP 40 was discovered: 30 s

## NC(=O)c1ccc[n+]([C@@H]2O[C@H](COP(=O)([O-])OP(=O)(O)OC[C@H]3O[C@@H](n4cnc5c(N)ncnc54)[C@H](O)[C@@H]3O)[C@@H](O)[C@H]2O)c1 [compound 2, β-NAD^+]
Wildtype Mac1 [8]
  hydrolysis by Mac1 (in words): intact
[9]
  hydrolysis by NADase (in words): hydrolyzed

## O=c1[nH]cnc2c1ncn2C1OC(COP(=O)(O)OP(=O)(O)OCC2OC(O)C(O)C2O)C(O)C1O (stereo not drawn) [compound 10, inosine-5′-O-diphosphoribose]
Mac1 of SARS-CoV-2 [1]
  Inhibition of Mac1 (in words): did not inhibit Mac1

## Nc1ncnc2c1ncn2[C@@H]1O[C@H](COP(=O)(O)OP(=O)(O)OC2CCCC2)[C@@H](O)[C@H]1O [compound 27, β-cyclopentyl-ADP]
Mac1 of SARS-CoV-2 [1]
  pIC50 (±SD) for Mac1 inhibition: 2.79

## Nc1nc(F)nc2c1ncn2C1OC(COP(=O)(O)OP(=O)(O)OCC2OC(O)C(O)C2O)C(O)C1O (stereo not drawn) [compound 11, 2-F-ADPR]
Mac1 of SARS-CoV-2 [1]
  IC50: 191 µM
